These compounds were tested on PDE4 (assay: Evaluation of PDE4 inhibitory activity, scintillation proximity assay). Conditions: scintillation proximity assay; class symbols of Evaluation 1; read-out: PDE4 Inhibitory Activity (concentration for the inhibition rate of 50%, IC50), Evaluation 1.
Assay type: biochemical
In short: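 IC50 was derived from inhibition curves, referenced to an enzyme-free blank and a DMSO-only control. Compound, PDE4 preparation and tritiated cAMP reacted 120 min at RT in Tris-HCl buffer (pH 7.4) with MgCl2, EGTA and BSA; YSi-SPA beads with ZnSO4 bound product before scintillation counting.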
With `OC(O)(c1cc(-c2nccs2)c2oc(N3CC4CCC(C3)N4)nc2c1)C(F)(F)F` [Example 157, 1-(2-(3,8-Diazabicyclo[3.2.1]octan-3-yl)-7-(thiazol-2-yl)benzo[d]oxazol-5-yl)-2,2,2-trifluoroethane-1,1-diol] the IC50 was < 100 nM.
Compound `OC(O)(c1cc(-c2nccs2)c2oc(N3CC4CC(C3)N4)nc2c1)C(F)(F)F` [Example 158, 1-(2-(3,6-Diazabicyclo[3.1.1]heptan-3-yl)-7-(thiazol-2-yl)benzo[d]oxazol-5-yl)-2,2,2-trifluoroethane-1,1-diol] has an IC50 of 100 to 1000 nM.
With `CC(O)(c1cc(-c2nccs2)c2oc(N3CC4CCC(C3)N4)nc2c1)C(F)(F)F` (centres unmarked) [Example 159, 2-(2-(3,8-Diazabicyclo[3.2.1]octan-3-yl)-7-(thiazol-2-yl)benzo[d]oxazol-5-yl)-1,1,1-trifluoropropan-2-ol] the IC50 was < 100 nM.
`CC(O)(c1cc(-c2nccs2)c2oc(N3CC4CC(C3)N4)nc2c1)C(F)(F)F` (centres unmarked) [Example 160, 2-(2-(3,6-Diazabicyclo[3.1.1]heptan-3-yl)-7-(thiazol-2-yl)benzo[d]oxazol-5-yl)-1,1,1-trifluoropropan-2-ol] was tested, and the IC50 was < 100 nM.
For `CC(O)(c1cc(-c2nccs2)c2oc(N3CC4CCCC(C3)N4)nc2c1)C(F)(F)F` (centres unmarked) [Example 161, 2-(2-(3,9-Diazabicyclo[3.3.1]nonan-3-yl)-7-(thiazol-2-yl)benzo[d]oxazol-5-yl)-1,1,1-trifluoropropan-2-ol], the IC50 was < 100 nM.
For `COC(C)(c1cc(-c2nccs2)c2oc(N3CC4CCCC(C3)N4)nc2c1)C(F)(F)F` (centres unmarked) [Example 162], the IC50 was < 100 nM.
For `CCOC(=O)c1cc(-c2nccs2)c2oc(N3CC4CCC(C3)N4)nc2c1C(F)(F)F` [Example 163, Ethyl 2-(3,8-diazabicyclo[3.2.1]octan-3-yl)-7-(thiazol-2-yl)-4-(trifluoromethyl)benzo[d]oxazole-5-carboxylate], the IC50 was < 100 nM.
In the case of `CCOC(=O)c1cc(-c2nccs2)c2oc(N3CC4CCCC(C3)N4)nc2c1C(F)(F)F` [Example 164, Ethyl 2-(3,9-diazabicyclo[3.3.1]nonan-3-yl)-7-(thiazol-2-yl)-4-(trifluoromethyl)benzo[d]oxazole-5-carboxylate], the IC50 is reported as < 100 nM.
In the case of `CCOC(=O)c1cc(-c2nccs2)c2oc(N3CC4CC(C3)N4)nc2c1C(F)(F)F` [Example 165, Ethyl 2-(3,6-diazabicyclo[3.1.1]heptan-3-yl)-7-(thiazol-2-yl)-4-(trifluoromethyl)benzo[d]oxazole-5-carboxylate], the IC50 is reported as < 100 nM.
For `CC(C)(O)c1cc(-c2nccs2)c2oc(N3CC4CCCC(C3)N4)nc2c1C(F)(F)F` [Example 166, 2-(2-(3,9-Diazabicyclo[3.3.1]nonan-3-yl)-7-(thiazol-2-yl)-4-(trifluoromethyl)benzo[d]oxazol-5-yl)propan-2-ol], the IC50 was < 100 nM.
`COCc1cc(-c2nccs2)c2oc(N3CC4CCC(C3)N4)nc2c1C(F)(F)F` [Example 167, 2-(3,8-Diazabicyclo[3.2.1]octan-3-yl)-5-(methoxymethyl)-7-(thiazol-2-yl)-4-(trifluoromethyl)benzo[d]oxazole] was tested, and the IC50 was < 100 nM.
For `c1csc(-c2cc(CN3CCOCC3)cc3nc(N4CC5CCC(C4)N5)oc23)n1` [Example 168, 2-(3,8-Diazabicyclo[3.2.1]octan-3-yl)-5-(morpholinomethyl)-7-(thiazol-2-yl)benzo[d]oxazole], the IC50 was < 100 nM.
In the case of `CN(C)Cc1cc(-c2nccs2)c2oc(N3CC4CCC(C3)N4)nc2c1` [Example 169, 1-(2-(3,8-Diazabicyclo[3.2.1]octan-3-yl)-7-(thiazol-2-yl)benzo[d]oxazol-5-yl)-N,N-dimethylmethanamine], the IC50 is reported as < 100 nM.
`OCc1cc(-c2nccs2)c2oc(N3CC4CCC(C3)N4)nc2c1C(F)(F)F` [Example 170, (2-(3,8-Diazabicyclo[3.2.1]octan-3-yl)-7-(thiazol-2-yl)-4-(trifluoromethyl)benzo[d]oxazol-5-yl)methanol] was tested, and the IC50 was < 100 nM.
`COC(C)(C)c1cc(-c2nccs2)c2oc(N3CC4CCC(C3)N4)nc2c1C(F)(F)F` [Example 171, 2-(3,8-Diazabicyclo[3.2.1]octan-3-yl)-5-(2-methoxypropan-2-yl)-7-(thiazol-2-yl)-4-(trifluoromethyl)benzo[d]oxazole] was tested, and the IC50 was < 100 nM.
In the case of `CC(C)(O)c1cc(-c2nccs2)c2oc(N3CC4CCC(C3)N4)nc2c1` [Example 172, 2-(2-(3,8-Diazabicyclo[3.2.1]octan-3-yl)-7-(thiazol-2-yl)benzo[d]oxazol-5-yl)propan-2-ol], the IC50 is reported as < 100 nM.
In the case of `CC(C)(O)c1cc(-c2nccs2)c2oc(N3CC4CC(C3)N4)nc2c1` [Example 173, 2-(2-(3,6-Diazabicyclo[3.1.1]heptan-3-yl)-7-(thiazol-2-yl)benzo[d]oxazol-5-yl)propan-2-ol], the IC50 is reported as < 100 nM.
For `COC(C)(C)c1cc(-c2nccs2)c2oc(N3CC4CC(C3)N4)nc2c1` [Example 174, 2-(3,6-Diazabicyclo[3.1.1]heptan-3-yl)-5-(2-methoxypropan-2-yl)-7-(thiazol-2-yl)benzo[d]oxazole], the IC50 was < 100 nM.
With `COC(C)(C)c1cc(-c2nccs2)c2oc(N3CC4CCC(C3)N4)nc2c1` [Example 175, 2-(3,8-Diazabicyclo[3.2.1]octan-3-yl)-5-(2-methoxypropan-2-yl)-7-(thiazol-2-yl)benzo[d]oxazole] the IC50 was < 100 nM.
For `CC(C)(O)c1cc(-c2nccs2)c2oc(N3CC4CC(C3)N4)nc2c1C(F)(F)F` [Example 178, 2-(2-(3,6-Diazabicyclo[3.1.1]heptan-3-yl)-7-(thiazol-2-yl)-4-(trifluoromethyl)benzo[d]oxazol-5-yl)propan-2-ol], the IC50 was < 100 nM.
`CC(=O)c1cc(-c2nccs2)c2oc(N3CC4CCC(C3)N4)nc2c1C(F)(F)F` [Example 179, 1-(2-(3,8-Diazabicyclo[3.2.1]octan-3-yl)-7-(thiazol-2-yl)-4-(trifluoromethyl)benzo[d]oxazol-5-yl)ethan-1-one] was tested, and the IC50 was < 100 nM.
With `CC(=O)c1cc(-c2nccs2)c2oc(N3CC4CC(C3)N4)nc2c1C(F)(F)F` [Example 180, 1-(2-(3,6-Diazabicyclo[3.1.1]heptan-3-yl)-7-(thiazol-2-yl)-4-(trifluoromethyl)benzo[d]oxazol-5-yl)ethan-1-one] the IC50 was < 100 nM.

Same assay, conditions: scintillation proximity assay; read-out: PDE4 Inhibitory Activity (Evaluation 1; concentration for the inhibition rate of 50%)
With `CC(O)c1cc(-c2nccs2)c2oc(N3CC4CCC(C3)N4)nc2c1C(F)(F)F` (centres unmarked) [Example 181, 1-(2-(3,8-Diazabicyclo[3.2.1]octan-3-yl)-7-(thiazol-2-yl)-4-(trifluoromethyl)benzo[d]oxazol-5-yl)ethan-1-ol] the IC50 was < 100 nM.
`CC(O)c1cc(-c2nccs2)c2oc(N3CC4CC(C3)N4)nc2c1C(F)(F)F` (centres unmarked) [Example 182, 1-(2-(3,6-Diazabicyclo[3.1.1]heptan-3-yl)-7-(thiazol-2-yl)-4-(trifluoromethyl)benzo[d]oxazol-5-yl)ethan-1-ol] was tested, and the IC50 was < 100 nM.
With `OC(c1cc(-c2nccs2)c2oc(N3CC4CCC(C3)N4)nc2c1C(F)(F)F)C(F)F` (centres unmarked) [Example 183, 1-(2-(3,8-Diazabicyclo[3.2.1]octan-3-yl)-7-(thiazol-2-yl)-4-(trifluoromethyl)benzo[d]oxazol-5-yl)-2,2-difluoroethan-1-ol] the IC50 was < 100 nM.
In the case of `COC(C)c1cc(-c2nccs2)c2oc(N3CC4CCC(C3)N4)nc2c1C(F)(F)F` (centres unmarked) [Example 184, 2-(3,8-Diazabicyclo[3.2.1]octan-3-yl)-5-(1-methoxyethyl)-7-(thiazol-2-yl)-4-(trifluoromethyl)benzo[d]oxazole], the IC50 is reported as < 100 nM.

Reference: patent publication US12239643B2, “Therapeutic agent for inflammatory diseases, autoimmune diseases, fibrotic diseases, and cancer diseases” (MEIJI SEIKA PHARMA CO., LTD., priority 2018, dated 2025)
